# How the values were obtained:
# human neutrophils [1] = settings: by inhibiting NAD(P)H; cited from earlier work
# human neutrophils [2] = settings: cited from earlier work
# human neutrophils [3] = experiment: NETosis assay; type: cell-based; settings: PMA 50 nM; for PMA-induced NETosis (NETosis positive events over time): T1/T3 10 μM, Trifluoperazine 100 ng/ml, Incucyte, 8 hr
# Procedure: NETosis assay: The assay was carried out as previously described (Gupta et al., “A High-Throughput Real-Time Imaging Technique To Quantify NETosis and Distinguish Mechanisms of Cell Death in Human Neutrophils.”, J Immunol. 2018; 200:869-879, herein incorporated by reference in its entirety). Briefly, human neutrophils (2×10^6 cells/mL) were incubated for 5 minutes in the dark at RT with the NUCLEAR-ID Red DNA dye to stain nuclei (Enzo Life Sciences, Inc.). Cells were washed twice and resuspended in 1 mL of RPMI media. NUCLEAR-ID Red stained-neutrophils were plated (20,000 neutrophils per 100 μL per well) in a 96-well flat microplate. Stimulation of neutrophils NETosis was performed with PMA alone (50 nM), or with PMA in the presence of T1 compound (10 μM) or T3 compound (10 μuM). Unstimulated neutrophils served as a negative control. Neutrophils stimulated with PMA in the presence of Trifluoperazine (Stelazine, 100 ng/ml) were used as positive control. A final concentration of 0.1 μM of the membrane impermeable dsDNA fluorescent Sytox® Green nucleic acid stain (Life Technologies, Inc.) was added to the plated cells concomitantly with the stimuli. Neutrophils were imaged within 10 minutes of plating using phase contrast, red (800 ms exposure) and green (400 ms exposure) channels in the IncuCyte ZOOM™ platform (Essen BioScience, Inc.), located within a cell incubator at 37° C. with 5% CO2. Four image sets from distinct regions per well using a 20x dry objective lens were taken every 20-30 minutes, for 8 hr. For red channel, filters were applied to exclude objects below radius of 10 μm, fluorescence threshold of 0.5 red corrected units, and area of 15 μm^2. The filters applied the green channel excluded objects below the radius of 10 μm, fluorescence threshold of 1.00 green corrected units, and area of 100 μm^2. The green object count divided by the red object count represents the percentage of cells going through NETosis of total neutrophils. Liposome preparation: 2.5% DSPE-PEG3400-Maleimide liposomes were prepared in 250 mM ammonium sulfate. Liposomes were prepared at a molar ration of 56.5:41: 2.5:0.09 of HSPC: Cholesterol: DSPE-PEG-Mal: DilC18 (5)-DS.
# Besides degranulation, neutrophils can kill pathogens extracellularly by releasing neutrophil extracellular traps (NETs), a process known as NETosis. Examination of NETosis induced by PMA was monitored by an Incucyte live-cell analysis system (FIG. 4). PMA treatment produced a steady increase in NETosis positive events starting at 2 hours after treatment. […] An increase was only observed after 4 hours when T1 was used and after 5 hours when T3 was used.
# DSS colitis model mice = experiment: DSS colitis mouse model; type: in vivo, C57BL/6 mice; settings: 3% DSS 5 days; 2.5 mg/kg of T3 on days 5, 7 and 9
# Procedure: Next, the ability of T3 administration, to treat colitis, a disease caused at least in part by neutrophil cytotoxicity, was tested in a mouse model. Colitis was induced in C57BL/6 mice by administration of 3% dextran sulfate sodium (DSS) for 5 consecutive days in drinking water. 2.5 mg/kg of T3, in its three formulations, was administered on days 5, 7 and 9. Colitis induction by DSS caused a pronounced shortening of the mouse colon.
# Lower doses of TENN-T3 were also tested. The targeted liposomes were administered at days 5 and 7 and mice were sacrificed on day 10 and colon length was measured.
# [4] = test system: peripheral blood neutrophils; experiment: LPS-induced inflammation mouse model, surface CD11b of peripheral blood neutrophils; type: in vivo, Balb/C mice; settings: LPS 1 mg/kg intraperitoneal; T3 (Z isomer) 3 mg/kg IV after 1 hour; blood after 3 hours
# Procedure: The in-vivo effect of the three compositions of T3 was examined in a mouse model of inflammation. Balb/C mice were intraperitoneal injected with 1 mg/kg of LPS to induce inflammation and neutrophil toxicity. After 1 hour, T3—free molecule, T3 within a liposome, and T3 within a targeted liposome (TENN-T3) were IV administered at a final concentration of 3 mg/kg body weight. After 3 hours 0.5 mL of blood was drawn from each mouse and degranulation of peripheral blood neutrophils was evaluated by flow cytometry analysis of surface CD11b levels (neutrophils were identified by Ly6G staining). […] Overall, it is clear that T3 inhibits neutrophil activation in vivo and that targeting greatly enhances the effect.
# human neutrophils [5] = settings: cited from earlier work; remark: listed apart in the source
smiles,measurement,setting,value
"c1ccc2c(c1)[I+]c1ccccc1-2 [DPI, Diphenylenciodonium]",ROS production (known effect),human neutrophils [1],nearly completely abolish ROS production
CC(C)(C)C(=O)/C(=C/c1cccc([N+](=O)[O-])c1)n1cncn1 [Nexinhib-20],inhibition of degranulation (known),human neutrophils [2],known to inhibit degranulation
CCN(CC)CCC(C)(C)C(=O)/C(=C/c1cccc([N+](=O)[O-])c1)n1cncn1 [T1],time after which an increase in NETosis was observed,human neutrophils [3]; compound 10 μM,> 4 h
same,PMA-induced NETosis (NETosis positive events over time),human neutrophils [3],initially inhibited an increase in NETosis completely
CN1CCC(N2CCC(C(=O)/C(=C/c3cccc([N+](=O)[O-])c3)n3cncn3)CC2)CC1 [T3],NETosis events compared with control,human neutrophils [3]; compound 10 μM,very similar to control
same,time after which an increase in NETosis was observed,human neutrophils [3]; compound 10 μM,> 5 h
same,PMA-induced NETosis (NETosis positive events over time),human neutrophils [3],initially inhibited an increase in NETosis completely
same,colon length,DSS colitis model mice,comparable to a negative control
same,reduction in degranulation (surface CD11b of blood neutrophils),[4],moderate but not statistically significant reduction
"CN1CCN(CCCN2c3ccccc3Sc3ccc(C(F)(F)F)cc32)CC1 [Trifluoperazine, reference compound]",PMA-induced NETosis (NETosis positive events over time),human neutrophils [3],steady reduction
same,inhibition of NETosis (known),human neutrophils [5],known inhibitor of NETosis
